Assay results published in patent US20150307938A1, “METHOD TO IDENTIFY A NOVEL CLASS OF IMMUNOLOGIC ADJUVANTS” (Lancell, L.L.C., priority 2011, published 2015).

Test system: skin
Assay: Affymetrix microarray of skin, DBP-4 hr and analogs vs. untreated; gene selection by log-2 fold change, Wilcoxon, Kendall tau (Tables 8, 9)
Assay type: in vivo, mouse
Settings: for Kendall: Kendall tau, expression vs. outcome

Question: Which results are given for `CCCCOC(=O)c1ccccc1C(=O)OCCCC` [DBP, dibutylphthalate]?
Answer: Wilcoxon (gene #557 Il10ra NM_008348_at, DBP-4 hr vs. untreated): No; Kendall (gene #557 Il10ra NM_008348_at): Yes; Wilcoxon (gene #558 Il7 NM_008371_at, DBP-4 hr vs. untreated): No; Kendall (gene #558 Il7 NM_008371_at): Yes; Wilcoxon (gene #559 Kif3a NM_008443_at, DBP-4 hr vs. untreated): No; Kendall (gene #559 Kif3a NM_008443_at): Yes; Wilcoxon (gene #560 Lmo2 NM_008505_at, DBP-4 hr vs. untreated): No; Kendall (gene #560 Lmo2 NM_008505_at): Yes; Wilcoxon (gene #561 Mcl1 NM_008562_at, DBP-4 hr vs. untreated): No; Kendall (gene #561 Mcl1 NM_008562_at): Yes; Wilcoxon (gene #562 Meox2 NM_008584_at, DBP-4 hr vs. untreated): No; Kendall (gene #562 Meox2 NM_008584_at): Yes; Wilcoxon (gene #563 Mtf1 NM_008636_at, DBP-4 hr vs. untreated): No; Kendall (gene #563 Mtf1 NM_008636_at): Yes; Wilcoxon (gene #564 Mut NM_008650_at, DBP-4 hr vs. untreated): No; Kendall (gene #564 Mut NM_008650_at): Yes; Wilcoxon (gene #565 Ppp1r15a NM_008654_at, DBP-4 hr vs. untreated): No; Kendall (gene #565 Ppp1r15a NM_008654_at): Yes; Wilcoxon (gene #566 Ncf4 NM_008677_at, DBP-4 hr vs. untreated): No; Kendall (gene #566 Ncf4 NM_008677_at): Yes; Wilcoxon (gene #567 Nos3 NM_008713_at, DBP-4 hr vs. untreated): No; Kendall (gene #567 Nos3 NM_008713_at): Yes; Wilcoxon (gene #568 Pigf NM_008838_at, DBP-4 hr vs. untreated): No; Kendall (gene #568 Pigf NM_008838_at): Yes; Wilcoxon (gene #569 Map2k3 NM_008928_at, DBP-4 hr vs. untreated): No; Kendall (gene #569 Map2k3 NM_008928_at): Yes; Wilcoxon (gene #570 Rad50 NM_009012_at, DBP-4 hr vs. untreated): No; Kendall (gene #570 Rad50 NM_009012_at): Yes; Wilcoxon (gene #571 Ralgds NM_009058_at, DBP-4 hr vs. untreated): No; Kendall (gene #571 Ralgds NM_009058_at): Yes; Wilcoxon (gene #572 Hltf NM_009210_at, DBP-4 hr vs. untreated): No; Kendall (gene #572 Hltf NM_009210_at): Yes; Wilcoxon (gene #573 Serpina3n NM_009252_at, DBP-4 hr vs. untreated): No; Kendall (gene #573 Serpina3n NM_009252_at): Yes; Wilcoxon (gene #574 Tnfaip1 NM_009395_at, DBP-4 hr vs. untreated): No; Kendall (gene #574 Tnfaip1 NM_009395_at): Yes; Wilcoxon (gene #575 Tuba4a NM_009447_at, DBP-4 hr vs. untreated): No; Kendall (gene #575 Tuba4a NM_009447_at): Yes; Wilcoxon (gene #576 Zfp101 NM_009542_at, DBP-4 hr vs. untreated): No; Kendall (gene #576 Zfp101 NM_009542_at): Yes; Wilcoxon (gene #577 Parp2 NM_009632_at, DBP-4 hr vs. untreated): No; Kendall (gene #577 Parp2 NM_009632_at): Yes; Wilcoxon (gene #578 Aldh2 NM_009656_at, DBP-4 hr vs. untreated): No; Kendall (gene #578 Aldh2 NM_009656_at): Yes; Wilcoxon (gene #579 Cebpb NM_009883_at, DBP-4 hr vs. untreated): No; Kendall (gene #579 Cebpb NM_009883_at): Yes; Wilcoxon (gene #580 Bcar1 NM_009954_at, DBP-4 hr vs. untreated): No; Kendall (gene #580 Bcar1 NM_009954_at): Yes; Wilcoxon (gene #581 Eci1 NM_010023_at, DBP-4 hr vs. untreated): No; Kendall (gene #581 Eci1 NM_010023_at): Yes; Wilcoxon (gene #582 Ddt NM_010027_at, DBP-4 hr vs. untreated): No; Kendall (gene #582 Ddt NM_010027_at): Yes; Wilcoxon (gene #583 Egr2 NM_010118_at, DBP-4 hr vs. untreated): No; Kendall (gene #583 Egr2 NM_010118_at): Yes; Wilcoxon (gene #584 F2r NM_010169_at, DBP-4 hr vs. untreated): No; Kendall (gene #584 F2r NM_010169_at): Yes; Wilcoxon: Abhd6 (gene Abhd6, NM_025341_at, DBP-4 hr vs. untreated): No; Kendall: Abhd6 (gene Abhd6, NM_025341_at, gene expression vs. output): Yes; Wilcoxon: Acad8 (gene Acad8, NM_025862_at, DBP-4 hr vs. untreated): No; Kendall: Acad8 (gene Acad8, NM_025862_at, gene expression vs. output): Yes; Wilcoxon: Ak2 (gene Ak2, NM_016895_at, DBP-4 hr vs. untreated): No; Kendall: Ak2 (gene Ak2, NM_016895_at, gene expression vs. output): Yes; Wilcoxon: Akr1e1 (gene Akr1e1, NM_018859_at, DBP-4 hr vs. untreated): No; Kendall: Akr1e1 (gene Akr1e1, NM_018859_at, gene expression vs. output): Yes; Wilcoxon: Avpr1a (gene Avpr1a, NM_016847_at, DBP-4 hr vs. untreated): No; Kendall: Avpr1a (gene Avpr1a, NM_016847_at, gene expression vs. output): Yes; Wilcoxon: B4galt1 (gene B4galt1, NM_022305_at, DBP-4 hr vs. untreated): No; Kendall: B4galt1 (gene B4galt1, NM_022305_at, gene expression vs. output): Yes; Wilcoxon: Bphl (gene Bphl, NM_026512_at, DBP-4 hr vs. untreated): No; Kendall: Bphl (gene Bphl, NM_026512_at, gene expression vs. output): Yes; Wilcoxon: Cdkl2 (gene Cdkl2, NM_016912_at, DBP-4 hr vs. untreated): No; Kendall: Cdkl2 (gene Cdkl2, NM_016912_at, gene expression vs. output): Yes; Wilcoxon: Cep70 (gene Cep70, NM_023873_at, DBP-4 hr vs. untreated): No; Kendall: Cep70 (gene Cep70, NM_023873_at, gene expression vs. output): Yes; Wilcoxon: Cirh1a (gene Cirh1a, NM_011574_at, DBP-4 hr vs. untreated): No; Kendall: Cirh1a (gene Cirh1a, NM_011574_at, gene expression vs. output): Yes; Wilcoxon: Clec14a (gene Clec14a, NM_025809_at, DBP-4 hr vs. untreated): No; Kendall: Clec14a (gene Clec14a, NM_025809_at, gene expression vs. output): Yes; Wilcoxon: Commd4 (gene Commd4, NM_025417_at, DBP-4 hr vs. untreated): No; Kendall: Commd4 (gene Commd4, NM_025417_at, gene expression vs. output): Yes; Wilcoxon: Cr1l (gene Cr1l, NM_013499_at, DBP-4 hr vs. untreated): No; Kendall: Cr1l (gene Cr1l, NM_013499_at, gene expression vs. output): Yes; Wilcoxon: Cyth1 (gene Cyth1, NM_011180_at, DBP-4 hr vs. untreated): No; Kendall: Cyth1 (gene Cyth1, NM_011180_at, gene expression vs. output): Yes; Wilcoxon: D16Ertd472e (gene D16Ertd472e, NM_025967_at, DBP-4 hr vs. untreated): No; Kendall: D16Ertd472e (gene D16Ertd472e, NM_025967_at, gene expression vs. output): Yes; Wilcoxon: Dcxr (gene Dcxr, NM_026428_at, DBP-4 hr vs. untreated): No; Kendall: Dcxr (gene Dcxr, NM_026428_at, gene expression vs. output): Yes; Wilcoxon: Dda1 (gene Dda1, NM_025600_at, DBP-4 hr vs. untreated): No
